In article PMC4392110, “Atom-Atom-Path similarity and Sphere Exclusion clustering: tools for prioritizing fragment hits” (Journal of Cheminformatics, 2015):

Molecular target: MAP4K4 kinase (Homo sapiens, UniProt O95819)
Experiment: MAP4K4 fragment screen, KD of fragment hits
Type: binding
Details: for Kd: fragment screening hits, read-out: MAP4K4 inact KD; for LE difference to the cluster seed: difference in LE to cluster seed (C02M01 or C12M01); for Ligand Efficiency: LE computed as 1.4*pKd/nHeavyAtoms
Text: Utilizing additional fragment collections, we expanded our previous ~2,500 compound screen of the MAP4K4 kinase by performing an additional screen of 8,000 compounds [28]. […] AAP similarity and DISE clustering were used to cluster the combined hit set fragments. The fragment hits were sorted according to their LE, followed by the cluster seed selection. The AAP similarity threshold in this step was 0.3. The remaining hits were assigned to the most similar cluster seed.

MAP4K4 kinase, sequence (O95819 whole entry, the tested form may be a part): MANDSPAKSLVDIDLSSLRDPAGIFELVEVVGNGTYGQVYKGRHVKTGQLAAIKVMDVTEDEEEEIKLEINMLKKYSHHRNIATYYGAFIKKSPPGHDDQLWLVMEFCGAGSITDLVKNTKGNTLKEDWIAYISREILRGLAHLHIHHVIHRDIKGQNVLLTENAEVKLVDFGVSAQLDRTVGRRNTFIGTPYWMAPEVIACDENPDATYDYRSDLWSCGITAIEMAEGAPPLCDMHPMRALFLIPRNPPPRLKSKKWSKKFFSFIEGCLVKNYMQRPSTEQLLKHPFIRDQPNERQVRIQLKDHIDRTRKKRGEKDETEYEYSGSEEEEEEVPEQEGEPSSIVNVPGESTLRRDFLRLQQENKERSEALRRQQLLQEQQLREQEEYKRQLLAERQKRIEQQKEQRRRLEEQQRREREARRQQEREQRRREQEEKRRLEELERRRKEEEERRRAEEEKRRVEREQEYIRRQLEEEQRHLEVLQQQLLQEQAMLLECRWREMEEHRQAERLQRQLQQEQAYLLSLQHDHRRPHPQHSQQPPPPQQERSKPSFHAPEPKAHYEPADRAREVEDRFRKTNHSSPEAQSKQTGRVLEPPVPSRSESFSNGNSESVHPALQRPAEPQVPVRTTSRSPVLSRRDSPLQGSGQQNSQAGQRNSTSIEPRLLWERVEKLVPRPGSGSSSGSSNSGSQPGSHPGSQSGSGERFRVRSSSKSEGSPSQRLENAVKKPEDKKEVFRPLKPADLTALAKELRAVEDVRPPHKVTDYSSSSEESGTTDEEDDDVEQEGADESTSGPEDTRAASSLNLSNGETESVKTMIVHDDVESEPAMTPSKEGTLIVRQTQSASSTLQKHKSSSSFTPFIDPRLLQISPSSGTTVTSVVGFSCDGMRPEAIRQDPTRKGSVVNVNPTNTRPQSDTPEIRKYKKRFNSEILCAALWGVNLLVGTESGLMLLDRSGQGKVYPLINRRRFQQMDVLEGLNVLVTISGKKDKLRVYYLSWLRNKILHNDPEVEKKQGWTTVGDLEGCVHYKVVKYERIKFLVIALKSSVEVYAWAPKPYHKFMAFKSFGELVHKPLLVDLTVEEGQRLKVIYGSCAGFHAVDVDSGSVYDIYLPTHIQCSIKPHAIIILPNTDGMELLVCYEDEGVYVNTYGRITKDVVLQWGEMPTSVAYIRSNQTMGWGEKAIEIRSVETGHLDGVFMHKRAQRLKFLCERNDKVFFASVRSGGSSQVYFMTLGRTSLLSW

Structure (SMILES)	Kd	LE difference to the cluster seed	Ligand Efficiency
Nc1ncncc1-c1ccc(O)cc1 [C02M01]	0.55 µM	–	–
Nc1ncncc1-c1ccccc1 [C02M02]	28 µM	0.13	–
Nc1ncncc1-c1ccc(Cl)cc1 [C02M03]	35.5 µM	0.17	–
Nc1ncnc(Cl)c1-c1ccccc1 [C02M04]	367 µM	–	–
OCc1ccc(-c2cncnc2)cc1 [C02M05]	505 µM	–	–
CCc1nc(N)nc(N)c1-c1ccc(Cl)cc1 [C02M06]	930 µM	–	–
Nc1c(-c2ccccc2)nn2ccccc12 [C12M05]	276 µM	–	0.31

The next lines start with the values.

Kd	LE difference to the cluster seed	Ligand Efficiency	Structure (SMILES)
3.4 µM	–	0.5	c1ccc(-c2n[nH]c3ccccc23)cc1 [C12M01]
2.1 µM	–	0.49	Nc1n[nH]c2cc(-c3ccccc3)ccc12 [C12M02]
16.8 µM	0.09	0.41	Nc1ccc2[nH]nc(-c3ccccc3)c2c1 [C12M03]
